What all share (assay type): in vivo, mouse
For assay [1], the system named is OVX+HFD+TAC female mice (C57BL/6N). The assay is described as follows: Body weight and body composition (EchoMRI) in OVX+HFD+TAC female mice. Conditions: OVX+HFD+TAC females. On the procedure: (§1) All animals were fed a high fat diet (HFD) consisting of 60% kcal derived from fat was fed to both male and female C57BL6N mice for 3 months. Mice were divided into two groups: 1) Controls with intact ovaries; 2) Ovariectomized (Ovx) mice. Mice were assigned to receive trans-aortic constriction (TAC) or sham surgery after 3 months of HFD, and further randomized to placebo vehicle and PDE9-I (PDE9 inhibitor oral gavage 20 mg/kg twice daily) (FIG. 1). Comparison of Group 1 and 2 tests the efficacy of PDE9-I to ameliorate and/or reverse HFD and pressure-overload pathophysiology independent of sex hormone status.
(§2) Body composition: total fat mass, lean mass, and water content was determined by quantitative nuclear magnetic resonance (Echo-MRI®). In brief, after 20 weeks on the HFD, total body fat and lean body mass were assessed non-invasively by EchoMRI instrument. The analyzer delivers precise body composition measurements of fat, lean, free water, and total water masses in live animals weighing up to 100 grams. Conscious mice were placed in a constraint tube that was then inserted into the EchoMRI for a period of approximately 30 s and these measurements obtained.
Female mice (C57BL/6N) were placed on a 60% fat diet starting at age 5-weeks. Two weeks later, there were randomized to receive bilateral oophorectomy or sham surgery. Cardiac imaging for ventricular function and morphometry was determined 2 months later. Between 8-11 weeks after ovariectomy, the mice underwent a second surgical procedure introducing a mild aortic constriction (TAC) in the transverse aorta to increase pressure load on the heart. The purpose of the TAC procedure was to stimulate the heart to synthesize natriuretic peptide, which is important for the generation of cyclic GMP which PDE9 regulates. Serial echocardiograms were obtained, and starting 1 week after TAC, mice were further randomized to receive vehicle control or a PDE9 inhibitor (PF-7943). Intact mouse metabolic studies, fat/lean mass determinations, and heart function were assessed. At terminal study, tissues were harvested for molecular signaling.
After 20 weeks on the HFD+ 8 wks mTAC, total body fat and lean body mass were assessed non-invasively by EchoMRI.

Assay [2] concerns C57BL6/N female mice with intact ovaries, HFD+TAC. The assay is described as follows: Body weight and body composition in HFD+TAC female mice with intact ovaries. As to conditions: females with intact ovaries, vs vehicle. On the procedure:
as §1, §2
In a second experiment, we examined the impact of PDE9 inhibition on female mice (C57BL6/N) subjected to HFD+TAC, but without ovariectomy and thus had normal estrogen levels.

The subject of another assay is male HFD+TAC mice. The assay is described as follows: Cardiac remodeling (echocardiography, Nppa RT-qPCR) in obese male HFD+TAC mice. As to conditions: vs vehicle; for natriuretic peptide (Nppa) gene expression in myocardium: RT-qPCR; for cardiac hypertrophy (LV mass): drug started 1 week after TAC. On the procedure: as §1
Changes in cardiac function and structure were measured using echocardiogram, histopathology and markers of cardiac stress (Nppa Gene expression by RT-qPCR). For qPCR, RNA is isolated from left ventricular myocardium (Trizol Reagent, Invitrogen), reverse transcribed to cDNA (High Capacity RNA-to-cDNA Kit, Applied Biosystems, Life Technologies), and undergoes PCR amplification using TaqMan probes for atrial natriuretic peptide (Nppa) (mouse #Mm01255747_g1, rat #Rn00664637_g1). The threshold cycle value was determined using the crossing point method, and samples normalized to the GAPDH for each run. Echocardiography was performed in conscious mice using serial M-mode transthoracic echocardiography (VisualSonics Vevo 2100, 18-38 MHz transducer; SanoSite Inc.). Images were obtained and analyzed by an individual blinded to the animal condition.
In a third experiment, we exposed male mice of a similar starting age (5 weeks) to the same HFD protocol, and then same TAC protocol. As before, mice were randomized to either vehicle control or active PDE9-inhibitor starting 1 week after the TAC procedure. FIG. 11.

The structures appear in SMILES notation.

Consider `C[C@@H]1CN(Cc2ncccn2)C[C@H]1c1nc2c(cnn2C2CCOCC2)c(=O)[nH]1` [PF 04447943], for which the “relative weight reduction compared to OVX mice on normal diet” value in assay [1] is approximately 30%. For the same compound, in assay [1] (EchoMRI), the “absolute lean body mass” value was “no change in absolute lean body mass”, the percent body fat result is given as “reduced percent body fat” and the “percent lean body mass” value is recorded as “increased percent lean body mass”. In addition, the fat weight result in assay [1] (EchoMRI, 20 weeks HFD + 8 wks mTAC) is given as “significant decline in fat weight”. This compound yielded a body weight decline in assay [1] (PDE9 inhibitor treatment) of approximately 20%. Moreover, in assay [2] (listed as PDE0-I), the fat mass result is reported as “no significant change”, the lean mass result is recorded as “no significant change”, the percent fat mass entry is reported as “no significant change” and the percent lean mass result was “no significant change”. Also, the total body weight entry in assay [2] (listed as PDE0-I) is “no significant change”. Further, in assay [2] (listed as PDE9 inhibitor), the fat mass entry is “did not have any alteration”, the lean mass entry was “did not have any alteration”, the percent fat mass result is on record as “did not have any alteration” and the percent lean mass entry is listed as “did not have any alteration”. In addition, the total body weight result in assay [2] (listed as PDE9 inhibitor) is “did not have any alteration”. In addition, the “natriuretic peptide (Nppa) gene expression in myocardium” value in the assay on male HFD+TAC mice (listed as PDE9-I) is “reduced”. For the same compound, in the assay with male HFD+TAC mice (listed as PDE9-inhibitor), the “natriuretic peptide (Nppa) gene expression in myocardium” value is given as “reduced by active therapy”; the “cardiac hypertrophy (LV mass)” value is given as “reduced left heart mass”; the ejection fraction entry is “increases in both fractional shortening and ejection fraction”; the fractional shortening entry is “increases in both fractional shortening and ejection fraction”. Also, in the assay on male HFD+TAC mice (listed as PDE9 inhibitor), the “cardiac hypertrophy (LV mass)” value was “significantly lowers cardiac hypertrophy”, the ejection fraction result is “improves cardiac function” and the fractional shortening entry is recorded as “improves cardiac function”.

(Values after US20210386743A1, “USE OF PDE9 INHIBITORS FOR TREATMENT” (The Johns Hopkins University, priority 2018, published 2021).)
